Assay results reported in patent US20230085307A1, “PYRIDAZINONE COMPOUND AND HERBICIDE” (NISSAN CHEMICAL CORPORATION, priority 2019, published 2023).

Assays:
[1] = system: oval-leafed pondweed; assay: Test Example 1: herbicidal activity, application before weed generation under submerged conditions (Table 16, symbol C); type: in vivo, oval-leafed pondweed (Monochoria vaginalis)
In short: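 Emulsion formulation, water-diluted to set dose, was put onto the flooded surface (4 cm depth, alluvial soil) the same day weeds were sown and 2.5-leaf rice transplanted. After 3 weeks at 25-30 °C under glass, each species was rated 0 (≤5% kill) to 5 (≥90% kill).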

[2] = system: late watergrass; assay: Test Example 2: herbicidal activity, application during weed generation under submerged conditions (Table 17, symbol A); type: in vivo, late watergrass (Echinochloa oryzicola); settings: for herbicidal effect rating, A: late watergrass: AAH 320 g/ha, application during weed generation, submerged conditions; for herbicidal effect grade, A: late watergrass: application during weed generation under submerged conditions
In short: (§1)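 In this pot test, flooded alluvial soil (water depth 4 cm) holds all three species sown as a mixture. Once seedlings have one to two leaves, the compound's emulsion, thinned with water to the intended dose, is poured on the water; grading follows after three weeks on the earlier criteria.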

[3] = system: Japanese bulrush; assay: Test Example 2: herbicidal activity, application during weed generation under submerged conditions (Table 17, symbol B); type: in vivo, Japanese bulrush (Schoenoplectus juncoides); settings: for herbicidal effect rating, B: Japanese bulrush: AAH 320 g/ha, application during weed generation, submerged conditions; for herbicidal effect grade, B: Japanese bulrush: application during weed generation under submerged conditions
In short: as §1

[4] = system: oval-leafed pondweed; assay: Test Example 2: herbicidal activity, application during weed generation under submerged conditions (Table 17, symbol C); type: in vivo, oval-leafed pondweed (Monochoria vaginalis); settings: for herbicidal effect rating, C: oval-leafed pondweed: AAH 320 g/ha, application during weed generation, submerged conditions; for herbicidal effect grade, C: oval-leafed pondweed: application during weed generation under submerged conditions
In short: as §1

[5] = system: barnyard grass; assay: Test Example 4: herbicidal effect by soil treatment (Table 19, symbol H); type: in vivo, barnyard grass (Echinochloa crus-galli)
In short: (§2)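 Applied as a water-diluted emulsion, the compound was sprayed onto soil covering newly sown seeds. Evaluation came three weeks after application, in a greenhouse held at 25° C. to 30° C.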

[6] = system: wild oat; assay: Test Example 4: herbicidal effect by soil treatment (Table 19, symbol I); type: in vivo, wild oat (Avena fatua)
In short: as §2

[7] = system: Italian ryegrass; assay: Test Example 4: herbicidal effect by soil treatment (Table 19, symbol K); type: in vivo, Italian ryegrass (Lolium multiflorum)
In short: as §2

[8] = system: windgrass; assay: Test Example 4: herbicidal effect by soil treatment (Table 19, symbol L); type: in vivo, windgrass (Apera spica-venti)
In short: as §2

[9] = system: velvetleaf; assay: Test Example 4: herbicidal effect by soil treatment (Table 19, symbol M); type: in vivo, velvetleaf (Abutilon theophrasti)
In short: as §2

[10] = system: lambsquarters; assay: Test Example 4: herbicidal effect by soil treatment (Table 19, symbol O); type: in vivo, lambsquarters (Chenopodium album)
In short: as §2

[11] = system: chickweed; assay: Test Example 4: herbicidal effect by soil treatment (Table 19, symbol P); type: in vivo, common chickweed (Stellaria media)
In short: as §2

[12] = system: false cleavers; assay: Test Example 4: herbicidal effect by soil treatment (Table 19, symbol Q); type: in vivo, false cleavers (Galium spurium)
In short: as §2

[13] = system: persian speedwell; assay: Test Example 4: herbicidal effect by soil treatment (Table 19, symbol R); type: in vivo, Persian speedwell (Veronica persica)
In short: as §2

[14] = system: southern crabgrass; assay: Test Example 5: herbicidal effect by foliage application, plastic box (Table 20, symbol F); type: in vivo, southern crabgrass (Digitaria ciliaris); settings: foliage application; for F (southern crabgrass) herbicidal effect grade: evaluated 3 weeks after application
In short: (§3)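 Sow seeds spot-wise in sterilized diluvial soil; cover with ~1.5 cm soil. Grow 14 days in greenhouse, 25° C. to 30° C. Spray foliage with emulsion diluted to predetermined amount. Rate effect after 3 weeks.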

[15] = system: wild oat; assay: Test Example 5: herbicidal effect by foliage application, plastic box (Table 20, symbol I); type: in vivo, wild oat (Avena fatua); settings: foliage application; for I (wild oat) herbicidal effect grade: evaluated 3 weeks after application
In short: as §3

[16] = system: chickweed; assay: Test Example 5: herbicidal effect by foliage application, plastic box (Table 20, symbol P); type: in vivo, common chickweed (Stellaria media); settings: foliage application; for P (chickweed) herbicidal effect grade: evaluated 3 weeks after application
In short: as §3

[17] = system: false cleavers; assay: Test Example 5: herbicidal effect by foliage application, plastic box (Table 20, symbol Q); type: in vivo, false cleavers (Galium spurium); settings: foliage application, 320 g/ha, three weeks after application
In short: as §3

[18] = amount of applied herbicide 320 g/ha
[19] = 320 g/ha, three weeks after application
[20] = amount of applied herbicide 402 g/ha

| Compound | Herbicidal effect, C: oval-leafed pondweed [1, 18] | herbicidal effect rating, A: late watergrass [2] | herbicidal effect rating, B: Japanese bulrush [3] | herbicidal effect rating, C: oval-leafed pondweed [4] | H: barnyard grass, herbicidal effect grade [5, 18] | I: wild oat, herbicidal effect grade [6, 18] | K: Italian ryegrass, herbicidal effect grade [7, 18] | L: windgrass, herbicidal effect grade [8, 18] | M: velvetleaf, herbicidal effect grade [9, 18] | O: lambsquarters, herbicidal effect grade [10, 18] | P: chickweed, herbicidal effect grade [11, 18] | Q: false cleavers, herbicidal effect grade [12, 18] | R: persian speedwell, herbicidal effect grade [13, 18] | F (southern crabgrass) herbicidal effect grade ([14]; 320 g/ha) | I (wild oat) herbicidal effect grade ([15]; 320 g/ha) | P (chickweed) herbicidal effect grade ([16]; 320 g/ha) | herbicidal effect grade, A: late watergrass [2, 18] | herbicidal effect grade, B: Japanese bulrush [3, 18] | herbicidal effect grade, C: oval-leafed pondweed [4, 18] | further results |
| --- | --- | --- | --- | --- | --- | --- | --- | --- | --- | --- | --- | --- | --- | --- | --- | --- | --- | --- | --- | --- |
| CCCC(=O)Oc1c(C)nn(C)c(=O)c1-c1c(-c2ccccc2OC)sc2cc(F)ccc12 [3-004] | 3 (Herbicidal rate of 40% or more and less than 70%) | 4 (Herbicidal rate of 70% or more and less than 90%) | 2 (Herbicidal rate of 20% or more and less than 40%) | 4 (Herbicidal rate of 70% or more and less than 90%) | – | – | – | – | – | – | – | – | – | – | – | – | – | – | – | herbicidal effect, H: barnyard grass [5, 18]: 4 (Herbicidal rate of 70% or more and less than 90%); herbicidal effect, I: wild oat [6, 18]: 3 (Herbicidal rate of 40% or more and less than 70%); herbicidal effect, K: Italian ryegrass [7, 18]: 5 (Herbicidal rate of 90% or more (almost completely withered)); herbicidal effect, L: windgrass [8, 18]: 5 (Herbicidal rate of 90% or more (almost completely withered)); herbicidal effect, M: velvetleaf [9, 18]: 4 (Herbicidal rate of 70% or more and less than 90%); herbicidal effect, O: lambsquarters [10, 18]: 5 (Herbicidal rate of 90% or more (almost completely withered)); herbicidal effect, P: chickweed [11, 18]: 5 (Herbicidal rate of 90% or more (almost completely withered)); herbicidal effect, Q: false cleavers [12, 18]: 5 (Herbicidal rate of 90% or more (almost completely withered)); herbicidal effect, R: persian speedwell [13, 18]: 4 (Herbicidal rate of 70% or more and less than 90%); F: southern crabgrass, herbicidal effect grade [14, 19]: 3 (Herbicidal rate of 40% or more and less than 70%); I: wild oat, herbicidal effect grade [15, 19]: 4 (Herbicidal rate of 70% or more and less than 90%); P: chickweed, herbicidal effect grade [16, 19]: 5 (Herbicidal rate of 90% or more (almost completely withered)); Q: false cleavers, herbicidal effect grade [17]: 5 (Herbicidal rate of 90% or more (almost completely withered)) |
| CCCOc1ccc(-c2oc3ccc(C)cc3c2-c2c(O)c(C)nn(C)c2=O)cc1 [9-049] | 5 (Herbicidal rate of 90% or more (almost completely withered)) | 5 (Herbicidal rate of 90% or more (almost completely withered)) | 4 (Herbicidal rate of 70% or more and less than 90%) | 4 (Herbicidal rate of 70% or more and less than 90%) | 4 (Herbicidal rate of 70% or more and less than 90%) | 0 (Herbicidal rate of 5% or less (almost no effect)) | 5 (Herbicidal rate of 90% or more (almost completely withered)) | 0 (Herbicidal rate of 5% or less (almost no effect)) | 3 (Herbicidal rate of 40% or more and less than 70%) | 4 (Herbicidal rate of 70% or more and less than 90%) | 4 (Herbicidal rate of 70% or more and less than 90%) | 0 (Herbicidal rate of 5% or less (almost no effect)) | 5 (Herbicidal rate of 90% or more (almost completely withered)) | 5 (Herbicidal rate of 90% or more (almost completely withered)) | 0 (Herbicidal rate of 5% or less (almost no effect)) | 5 (Herbicidal rate of 90% or more (almost completely withered)) | – | – | – | – |
| CCCC(=O)Oc1c(C)nn(C)c(=O)c1-c1c(-c2ccc(SCC)cc2)oc2ccc(C)cc12 [9-058] | 5 (Herbicidal rate of 90% or more (almost completely withered)) | – | – | – | 2 (Herbicidal rate of 20% or more and less than 40%) | 0 (Herbicidal rate of 5% or less (almost no effect)) | 5 (Herbicidal rate of 90% or more (almost completely withered)) | 0 (Herbicidal rate of 5% or less (almost no effect)) | 3 (Herbicidal rate of 40% or more and less than 70%) | 5 (Herbicidal rate of 90% or more (almost completely withered)) | 3 (Herbicidal rate of 40% or more and less than 70%) | 0 (Herbicidal rate of 5% or less (almost no effect)) | 5 (Herbicidal rate of 90% or more (almost completely withered)) | 4 (Herbicidal rate of 70% or more and less than 90%) | 2 (Herbicidal rate of 20% or more and less than 40%) | 5 (Herbicidal rate of 90% or more (almost completely withered)) | 4 (Herbicidal rate of 70% or more and less than 90%) | 3 (Herbicidal rate of 40% or more and less than 70%) | 4 (Herbicidal rate of 70% or more and less than 90%) | – |
| CCCC(=O)Oc1c(C)nn(C)c(=O)c1-c1c(-c2ccc(SC(C)C)cc2)oc2ccc(C)cc12 [9-060] | – | – | – | – | – | – | – | – | – | – | – | – | – | – | – | – | – | – | – | Herbicidal effect, C: oval-leafed pondweed [1, 20]: 5 (Herbicidal rate of 90% or more (almost completely withered)); herbicidal effect grade, A: late watergrass [2, 20]: 4 (Herbicidal rate of 70% or more and less than 90%); herbicidal effect grade, B: Japanese bulrush [3, 20]: 3 (Herbicidal rate of 40% or more and less than 70%); herbicidal effect grade, C: oval-leafed pondweed [4, 20]: 4 (Herbicidal rate of 70% or more and less than 90%); H: barnyard grass, herbicidal effect grade [5, 20]: 0 (Herbicidal rate of 5% or less (almost no effect)); I: wild oat, herbicidal effect grade [6, 20]: 0 (Herbicidal rate of 5% or less (almost no effect)); K: Italian ryegrass, herbicidal effect grade [7, 20]: 4 (Herbicidal rate of 70% or more and less than 90%); L: windgrass, herbicidal effect grade [8, 20]: 0 (Herbicidal rate of 5% or less (almost no effect)); M: velvetleaf, herbicidal effect grade [9, 20]: 3 (Herbicidal rate of 40% or more and less than 70%); O: lambsquarters, herbicidal effect grade [10, 20]: 4 (Herbicidal rate of 70% or more and less than 90%); P: chickweed, herbicidal effect grade [11, 20]: 1 (Herbicidal rate of 5% or more and less than 20%); Q: false cleavers, herbicidal effect grade [12, 20]: 0 (Herbicidal rate of 5% or less (almost no effect)); R: persian speedwell, herbicidal effect grade [13, 20]: 5 (Herbicidal rate of 90% or more (almost completely withered)); F (southern crabgrass) herbicidal effect grade ([14]; 402 g/ha): 0 (Herbicidal rate of 5% or less (almost no effect)); I (wild oat) herbicidal effect grade ([15]; 402 g/ha): 3 (Herbicidal rate of 40% or more and less than 70%); P (chickweed) herbicidal effect grade ([16]; 402 g/ha): 5 (Herbicidal rate of 90% or more (almost completely withered)) |
| CCCC(=O)Oc1c(C)nn(C)c(=O)c1-c1c(-c2ccc(COC)cc2)oc2ccc(C)cc12 [9-062] | 5 (Herbicidal rate of 90% or more (almost completely withered)) | – | – | – | 4 (Herbicidal rate of 70% or more and less than 90%) | 0 (Herbicidal rate of 5% or less (almost no effect)) | 5 (Herbicidal rate of 90% or more (almost completely withered)) | 0 (Herbicidal rate of 5% or less (almost no effect)) | 5 (Herbicidal rate of 90% or more (almost completely withered)) | 4 (Herbicidal rate of 70% or more and less than 90%) | 3 (Herbicidal rate of 40% or more and less than 70%) | 0 (Herbicidal rate of 5% or less (almost no effect)) | 5 (Herbicidal rate of 90% or more (almost completely withered)) | 5 (Herbicidal rate of 90% or more (almost completely withered)) | 0 (Herbicidal rate of 5% or less (almost no effect)) | 5 (Herbicidal rate of 90% or more (almost completely withered)) | 3 (Herbicidal rate of 40% or more and less than 70%) | 3 (Herbicidal rate of 40% or more and less than 70%) | 3 (Herbicidal rate of 40% or more and less than 70%) | – |
